The values below come from ChEMBL document CHEMBL1141028, “Novel NGF-potentiating diterpenoids from a Brazilian medicinal plant, Ptychopetalum olacoides” (Bioorg Med Chem Lett, 2009).

Active and inactive are the calls of the source. No cut-off for these calls is given here.

The test system of data set [1] is PC-12. The data set is described as follows: Enhancement of NGF-induced neurite outgrowth in rat PC12 cells assessed as morphological changes at 0.1 to 50 uM after 4 days by phase-contrast microscopy. In kind it is functional, cell-based.
The subject of data set [2] is PC-12. As to the kind of experiment: Enhancement of neurite outgrowth in rat PC12 cells assessed as morphological changes after 4 days by phase-contrast microscopy in absence of NGF. In kind it is functional, cell-based.
Data set [3] relates to PC-12. As to the kind of experiment: Enhancement of neurite length extending from cell bodies in NGF-mediated rat PC12 cells at 0.1 to 50 uM after 4 days. In kind it is functional, cell-based.
Data set [4] has as its system PC-12. The data set is described as follows: Enhancement of neurite length extending from cell bodies in NGF-mediated rat PC12 cells at 30 uM after 4 days. It is filed as functional.
Data set [5] relates to PC-12. The data set is described as follows: Enhancement of neurite length extending from cell bodies in NGF-mediated rat PC12 cells at 50 uM after 4 days. In kind it is functional.
Data set [6] concerns PC-12. As to the kind of experiment: Enhancement of neurite length extending from cell bodies in NGF-mediated rat PC12 cells at 0.1 uM after 4 days. It is filed as functional.
Data set [7] concerns PC-12. The data set is described as follows: Enhancement of neurite length extending from cell bodies in NGF-mediated rat PC12 cells after 4 days relative to control. In kind it is functional, cell-based.
Data set [8] relates to PC-12. The data set is described as follows: Enhancement of neurite length extending from cell bodies in NGF-mediated rat PC12 cells at 10 uM after 4 days. In kind it is functional.
The subject of data set [9] is PC-12. The data set is described as follows: Enhancement of NGF-induced neurite outgrowth in rat PC12 cells assessed as morphological changes after 4 days by phase-contrast microscopy. It is filed as functional, cell-based.
Data set [10] concerns PC-12. The data set is described as follows: Enhancement of neurite length extending from cell bodies in NGF-mediated rat PC12 cells at 1 uM after 4 days. In kind it is functional.
In data set [11] the test system is PC-12. As to the kind of experiment: Cytotoxicity against rat PC12 cells at 50 uM. It is filed as cell-based. Particulars: pc-12, 50 µM.

As for `CC1=CCC[C@@H]2[C@@](C)(CCC3=CC(=O)OC3)[C@H](C)[C@H](O)C[C@@]12C`, the outcome in the data set on PC-12 [1], in the data set on PC-12 [2] and in the data set with PC-12 [3] was inactive.

With `CC1=CCC[C@@H]2[C@@](C)(CCc3ccoc3)[C@H](C)[C@H](O)[C@H](O)[C@@]12C`, the Activity with PC-12 [4] was 201.5 um; in the data set with PC-12 [5], 205.3 um; in the data set on PC-12 [6], 104 um; with PC-12 [7] it was “Dose-dependent effect”; with PC-12 [8], 173.1 um; with PC-12 [9], “Dose-dependent effect”. For the same compound, in the data set on PC-12 [10], the Activity came out at 115.8 um. Moreover, the outcome in the data set with PC-12 [2] was inactive.

For `CC1=CCC[C@@H]2[C@@](C)(CCc3ccoc3)[C@H](C)[C@@H]3OC(C)(C)O[C@@H]3[C@@]12C`, the result in the data set with PC-12 [3] was inactive.

Regarding `COC1C=C(CC[C@@]2(C)[C@H](C)[C@H](O)[C@H](O)[C@@]3(C)C(C)=CCC[C@H]23)C(=O)O1` (some centres not stated), the outcome with PC-12 [1], in the data set on PC-12 [2] and with PC-12 [3] was inactive.

`CC1=CCC[C@@H]2[C@@](CO)(CCc3ccoc3)[C@H](C)[C@H](O)C[C@@]12C`: the Activity in the data set on PC-12 [4] was 236.3 um; with PC-12 [6] it was 95.3 um; in the data set with PC-12 [8], 106.5 um; with PC-12 [11], “Toxic”; in the data set with PC-12 [9], “Dose-dependent effect”; with PC-12 [10] it was 101.7 um. The result in the data set with PC-12 [2] was inactive.
